Reference: US20250145601A1, “NOVEL BICYCLIC COMPOUNDS AS RAD51 INHIBITORS” (SATYA THERAPEUTICS, INC., priority 2022, published 2025)

These molecules were tested on MDA MB 231 cells (assay: Antiproliferation assay in MDA MB 231 cells (Cell Titer Glo)). Settings: Homo sapiens, MDA-MB-231, 216 h, MDAMB231 cell line, 9 day treatment, racemic compounds (Table 2).
Type: cell-based
Description: Antiproliferation Assay in MDA MB 231 Cells MDA MB 231 cells were seeded in 96 well plate at a seeding density of 250 cells/well. The cells were allowed to settle overnight under standard incubator conditions (37° C., 5% CO2). Next day treatment with increasing dose of test compounds and reference compounds were done to the respective wells and the cells were further incubated under standard cell culture conditions for another 4 days. On the 5th day, media was replenished with fresh treatment and cells were incubated for a total of 9 day treatment period. On the day of termination, appropriate volume of Cell Titer Glo reagent was added to the treatment (and control) wells and the plates were kept on a plate shaker @300 RPM for 15 min. Luminiscence reading (RLU) was […] RLU is directly proportional to ATP content and is directly related to number of metabolically active cells in the respective well. Calculation: a. Blank Correction: RLU of the Wells Containing No Cells is Considered as Blank and Subtracted from all RLU of the Treated and Control Wells [formula]

| SMILES | inhibition at 10 µM |
| --- | --- |
| CCC(=O)N1N=C(c2c(C)c3ccsc3[nH]c2=O)CC1c1cnc(C)c(Cl)c1 (centres unmarked) [Example 52, 5-(5-(5-chloro-6-methylpyridin-3-yl)-1-propionyl-4,5-dihydro-1H-pyrazol-3-yl)-4-methylthieno[2,3-b]pyridin-6(7H)-one] | ≥ 50% |
| CCC(=O)N1N=C(c2c(C)c3ccsc3[nH]c2=O)CC1c1cnc(C)cc1OC (centres unmarked) [Example 53, 5-(5-(4-methoxy-6-methylpyridin-3-yl)-1-propionyl-4,5-dihydro-1H-pyrazol-3-yl)-4-methylthieno[2,3-b]pyridin-6(7H)-one] | < 50% |
| CCC(=O)N1N=C(c2c(C)c3ccsc3[nH]c2=O)CC1c1cnc(C)c(C)c1 (centres unmarked) [Example 54, 5-(5-(5,6-dimethylpyridin-3-yl)-1-propionyl-4,5-dihydro-1H-pyrazol-3-yl)-4-methylthieno[2,3-b]pyridin-6(7H)-one] | ≥ 50% |
| CCC(=O)N1N=C(c2c(C)c3ccsc3[nH]c2=O)CC1c1cnc(C)c(F)c1 (centres unmarked) [Example 55, 5-(5-(5-fluoro-6-methylpyridin-3-yl)-1-propionyl-4,5-dihydro-1H-pyrazol-3-yl)-4-methylthieno[2,3-b]pyridin-6(7H)-one] | ≥ 50% |
| CCC(=O)N1N=C(c2c(C)c3ccsc3[nH]c2=O)CC1c1cnc(C)cc1Cl (centres unmarked) [Example 56, 5-(5-(4-chloro-6-methylpyridin-3-yl)-1-propionyl-4,5-dihydro-1H-pyrazol-3-yl)-4-methylthieno[2,3-b]pyridin-6(7H)-one] | ≥ 50% |
| CCC(=O)N1N=C(c2c(C)c3ccsc3[nH]c2=O)CC1c1cnc(C)s1 (centres unmarked) [Example 57, 4-methyl-5-(5-(2-methylthiazol-5-yl)-1-propionyl-4,5-dihydro-1H-pyrazol-3-yl)thieno[2,3-b]pyridin-6(7H)-one] | ≥ 50% |
| CCC(=O)N1N=C(c2c(C)c3ccsc3[nH]c2=O)CC1C1CCCCC1 (centres unmarked) [Example 58, 5-(5-cyclohexyl-1-propionyl-4,5-dihydro-1H-pyrazol-3-yl)-4-methylthieno[2,3-b]pyridin-6(7H)-one] | < 50% |
| CCC(=O)N1N=C(c2c(C)c3cc(Cl)ccc3[nH]c2=O)CC1c1ccc(C)cc1 (centres unmarked) [Example 59, 6-chloro-4-methyl-3-(1-propionyl-5-(p-tolyl)-4,5-dihydro-1H-pyrazol-3-yl)quinolin-2(1H)-one] | ≥ 50% |
| CCC(=O)N1N=C(c2c(C)c3nc(Cl)ccc3[nH]c2=O)CC1c1ccc(C)cc1 (centres unmarked) [Example 61, 6-chloro-4-methyl-3-(1-propionyl-5-(p-tolyl)-4,5-dihydro-1H-pyrazol-3-yl)-1,5-naphthyridin-2(1H)-one] | ≥ 50% |
| CC(=O)N1N=C(c2c(C)c3ccsc3[nH]c2=O)CC1c1ccc(C)cc1 (centres unmarked) [Example 62, 5-(1-acetyl-5-(p-tolyl)-4,5-dihydro-1H-pyrazol-3-yl)-4-methyl-7,7a-dihydrothieno[2,3-b]pyridin-6(7H)-one] | ≥ 50% |
| Cc1ccc(C2CC(c3c(C)c4ccsc4[nH]c3=O)=NN2C(=O)C(C)C)cc1 (centres unmarked) [Example 63, 5-(1-isobutyryl-5-(p-tolyl)-4,5-dihydro-1H-pyrazol-3-yl)-4-methyl-7,7a-dihydrothieno[2,3-b]pyridin-6(7H)-one] | ≥ 50% |
| Cc1ccc(C2CC(c3c(C)c4ccsc4[nH]c3=O)=NN2C(=O)C(F)(F)F)cc1 (centres unmarked) [Example 64, 4-methyl-5-(5-(p-tolyl)-1-(2,2,2-trifluoroacetyl)-4,5-dihydro-1H-pyrazol-3-yl)-7,7a-dihydrothieno[2,3-b]pyridin-6(7H)-one] | ≥ 50% |
| CCC(=O)N1N=C(c2c(C)c3ccsc3[nH]c2=O)CC1c1ccc(C)cc1Cl (centres unmarked) [Example 65, 5-(5-(2-chloro-4-methylphenyl)-1-propionyl-4,5-dihydro-1H-pyrazol-3-yl)-4-methylthieno[2,3-b]pyridin-6(7H)-one] | ≥ 50% |
| CCC(=O)N1N=C(c2c(C)c3cc(Cl)cnc3[nH]c2=O)CC1c1ccc(C)cc1 (centres unmarked) [Example 67, 6-chloro-4-methyl-3-(1-propionyl-5-(p-tolyl)-4,5-dihydro-1H-pyrazol-3-yl)-1,8-naphthyridin-2(1H)-one] | < 50% |
| CCC(=O)N1N=C(c2c(C)c3ccsc3[nH]c2=O)CC1c1ccc(CF)cc1 (centres unmarked) [Example 68, 5-(5-(4-(fluoromethyl)phenyl)-1-propionyl-4,5-dihydro-1H-pyrazol-3-yl)-4-methylthieno[2,3-b]pyridin-6(7H)-one] | ≥ 50% |
| CCC(=O)N1N=C(c2c(C)c3ncccc3[nH]c2=O)CC1c1ccc(C)cc1 (centres unmarked) [Example 69, 4-methyl-3-(1-propionyl-5-(p-tolyl)-4,5-dihydro-1H-pyrazol-3-yl)-1,5-naphthyridin-2(1H)-one] | ≥ 50% |
| CCC(=O)N1N=C(c2c(C)c3ccsc3[nH]c2=O)CC1Cc1ccccc1 (centres unmarked) [Example 71, 5-(5-benzyl-1-propionyl-4,5-dihydro-1H-pyrazol-3-yl)-4-methylthieno[2,3-b]pyridin-6(7H)-one] | ≥ 50% |
| CCC(=O)N1N=C(c2c(C)c3cc(Cl)sc3[nH]c2=O)CC1c1ccc(C)cc1 (centres unmarked) [Example 72, 2-chloro-4-methyl-5-(1-propionyl-5-(p-tolyl)-4,5-dihydro-1H-pyrazol-3-yl)thieno[2,3-b]pyridin-6(7H)-one] | ≥ 50% |
| CCC(=O)N1N=C(c2c(C)c3cccnc3[nH]c2=O)CC1c1ccc(C)cc1 (centres unmarked) [Example 73, 4-methyl-3-(1-propionyl-5-(p-tolyl)-4,5-dihydro-1H-pyrazol-3-yl)-1,8-naphthyridin-2(1H)-one] | ≥ 50% |
| CCC(=O)N1N=C(c2c(C)c3ccc(C)cc3[nH]c2=O)CC1c1ccc(C)cc1 (centres unmarked) [Example 75, 4,7-dimethyl-3-(1-propionyl-5-(p-tolyl)-4,5-dihydro-1H-pyrazol-3-yl)quinolin-2(1H)-one] | ≥ 50% |
| CCC(=O)N1N=C(c2c(C)c3c(C)cccc3[nH]c2=O)CC1c1ccc(C)cc1 (centres unmarked) [Example 76, 4,5-dimethyl-3-(1-propionyl-5-(p-tolyl)-4,5-dihydro-1H-pyrazol-3-yl)quinolin-2(1H)-one] | ≥ 50% |
| CCC(=O)N1N=C(c2c(C)c3ccc(N4CCOCC4)cc3[nH]c2=O)CC1c1ccc(C)cc1 (centres unmarked) [Example 77, 4-methyl-7-morpholino-3-(1-propionyl-5-(p-tolyl)-4,5-dihydro-1H-pyrazol-3-yl)quinolin-2(1H)-one] | ≥ 50% |
| CCC(=O)N1N=C(c2c(C)c3cc(Cl)ncc3[nH]c2=O)CC1c1ccc(C)cc1 (centres unmarked) [Example 79, 6-chloro-4-methyl-3-(1-propionyl-5-(p-tolyl)-4,5-dihydro-1H-pyrazol-3-yl)-1,7-naphthyridin-2(1H)-one] | ≥ 50% |
| CCC(=O)N1N=C(c2c(C)c3cc(C)ncc3[nH]c2=O)CC1c1ccc(C)cc1 (centres unmarked) [Example 81, 4,6-dimethyl-3-(1-propionyl-5-(p-tolyl)-4,5-dihydro-1H-pyrazol-3-yl)-1,7-naphthyridin-2(1H)-one] | < 50% |
| CCC(=O)N1N=C(c2c(C)c3ccc(F)cc3[nH]c2=O)CC1c1ccc(C)cc1 (centres unmarked) [Example 83, 7-fluoro-4-methyl-3-(1-propionyl-5-(p-tolyl)-4,5-dihydro-1H-pyrazol-3-yl)quinolin-2(1H)-one] | ≥ 50% |
| CCC(=O)N1N=C(c2c(C)c3ccc(C)nc3[nH]c2=O)CC1c1ccc(C)cc1 (centres unmarked) [Example 84, 4,7-dimethyl-3-(1-propionyl-5-(p-tolyl)-4,5-dihydro-1H-pyrazol-3-yl)-1,8-naphthyridin-2(1H)-one] | ≥ 50% |
| CCC(=O)N1N=C(c2c(C)c3cnccc3[nH]c2=O)CC1c1ccc(C)cc1 (centres unmarked) [Example 85, 4-methyl-3-(1-propionyl-5-(p-tolyl)-4,5-dihydro-1H-pyrazol-3-yl)-1,6-naphthyridin-2(1H)-one] | ≥ 50% |
| CCC(=O)N1N=C(c2c(C)c3ccc(N4CCOCC4)nc3[nH]c2=O)CC1c1ccc(C)cc1 (centres unmarked) [Example 86, 4-methyl-7-morpholino-3-(1-propionyl-5-(p-tolyl)-4,5-dihydro-1H-pyrazol-3-yl)-1,8-naphthyridin-2(1H)-one] | < 50% |
| CCC(=O)N1N=C(c2c(C)c3ccc(OCCOC)nc3[nH]c2=O)CC1c1ccc(C)cc1 (centres unmarked) [Example 87, 7-(2-methoxyethoxy)-4-methyl-3-(1-propionyl-5-(p-tolyl)-4,5-dihydro-1H-pyrazol-3-yl)-1,8-naphthyridin-2(1H)-one] | ≥ 50% |
